Experimental data: paper PMC9823088, “The oral selective estrogen receptor degrader GDC-0810 (ARN-810) in postmenopausal women with hormone receptor-positive HER2-negative (HR + /HER2 −) advanced/metastatic breast cancer” (Breast Cancer Research and Treatment, 2022)

Assay: Safety: adverse events (NCI-CTCAE v4.0), DLT, MTD, RP2D
Assay type: in vivo
Method: AEs were assessed using the National Cancer Institute-Common Terminology Criteria for Adverse Events (NCI-CTCAE v4.0). […] The protocol-defined GDC-0810-specific AEs of special interest (AESI) which were non-serious adverse events that required expedited reporting to the sponsor, included DLTs occurring during the DLT assessment window, grade ≥ 2 vomiting/diarrhea, grade ≥ 3 nausea, grade ≥ 2 thromboembolic events, grade ≥ 2 vaginal or uterine hemorrhage, and grade ≥ 3 elevation of ALT or AST.
Analyses of safety, pharmacokinetics, anti-tumor activity, and data from the FES-PET imaging correlative studies were planned. Confirmatory inferential analyses and imputation for missing data were not planned due to the exploratory nature of this study. Descriptive statistics were used to summarize patient data. The number of patients to be enrolled was dependent upon the observed safety and pharmacokinetic profile during dose escalations. The safety- and efficacy-evaluable population included patients who received at least one dose of the study drug. Safety was assessed through summaries of DLTs, AEs, changes in select laboratory test results, vital signs, ECGs, and changes in endometrial thickness. Objective response (with confirmation) and clinical benefit rates (CBR) were derived per RECIST v1.1 and summarized by dose level and cohort. […]
polyps, endometrial cancer, endometrial hyperplasia, and other significant disorders); any […]
disease or chronic diarrhea, short bowel syndrome, or upper gastrointestinal surgery; known human immunodeficiency virus (HIV) infection; known clinically significant history of liver disease; major surgery within 4 weeks prior to enrollment; or radiation therapy within 2 weeks […]
There were phase-specific exclusion criteria as well. In phase Ib, cohort C1 excluded patients with a history of venous thromboembolic event requiring therapeutic anticoagulation or vaginal bleeding within 2 months prior to enrollment. In phase IIa, cohorts A1 and A2 excluded patients with >1 chemotherapy in the advanced/metastatic disease setting. In phase IIa, cohort B1 excluded patients with >1 prior AI in the advanced/metastatic disease setting or prior […]
In phase IIa, cohort B2 excluded patients with >1 prior AI or >1 prior chemotherapy in the advanced/metastatic disease setting.
Patients in phase Ia in dose escalation received oral doses of GDC-0810 during 28-day cycles given once daily (QD) or twice-daily (BID), with fasting and without fasting, and with a single dose given on day −7 leading into cycle 1. The starting dose in the first cohort was 100 mg per day based on preclinical studies. Dose escalation to 200 mg and by 200 mg increments in successive cohorts occurred in the absence of dose-limiting toxicities (DLTs), or conditionally in the presence of DLTs. A DLT was defined as any adverse event (AE) occurring during the DLT window deemed by the investigator or sponsor to be related to the study drug unless they were clearly related to disease progression or other cause; DLT incidences were evaluated from day […]
patients in a dose cohort experienced a DLT, 3 additional patients were assigned to that dose; dose escalation to the next level proceeded if DLTs were experienced by ≤1 patient out of 6. If ≥2 patients experienced DLTs at a given dose, a lower dose was to be declared the maximum […]
Phase Ib was a dose-escalation study of GDC-0810 starting at 400 mg QD, as […]
Phase IIa explored the recommended phase 2 dose (RP2D) from phase Ia. All patients received GDC-0810 600 mg under non-fasting conditions. Cohorts A1 and A2 enrolled patients with tumors harboring ESR1 mutations with no prior fulvestrant use in cohort A1 while prior fulvestrant use was allowed in cohort A2. Cohorts B1 and B2 enrolled patients whose disease had progressed and who may have had one or no AI therapy; there was no prior fulvestrant use in cohort B1 while prior fulvestrant use was allowed in cohort B2.
Patients in all three study phases continued treatment until unacceptable toxicity, disease

[1] = phase Ib C1, 400 mg QD + palbociclib, n = 4
[2] = phase Ib D1, ≤ 600 mg QD + LHRH agonist, n = 6
[3] = phase Ib and IIa (n=111), grade 2, cohort B1
[4] = phase Ib and IIa (n=111), grade 2, cohort D1
[5] = phase Ib and IIa (n=111), grade 3, cohort A1
[6] = phase Ib and IIa (n=111), grade 3, cohort B1
[7] = phase Ib and IIa (n=111), grade 5, cohort B1
[8] = phase Ib combination treatments

With `CC/C(=C(/c1ccc(/C=C/C(=O)O)cc1)c1ccc2[nH]ncc2c1)c1ccc(F)cc1Cl` [GDC-0810] the “Diarrhea, Grades 3–5” value [1] was 0 n (%), the “Diarrhea, all grades” value [1] was 2 (50) n (%) and the “Dyspepsia, Grades 3–5” value [1] was 0 n (%). The “Dyspepsia, all grades” value [1] was 0 n (%), the “Fatigue, Grades 3–5” value [1] was 1 (25) n (%) and the “Fatigue, all grades” value [1] was 2 (50) n (%). The “Flatulence, Grades 3–5” value [1] was 0 n (%), the “Flatulence, all grades” value [1] was 0 n (%) and the “Nausea, Grades 3–5” value [1] was 0 n (%). For the same compound, the “Nausea, all grades” value [1] was 3 (75) n (%), the “Vomiting, Grades 3–5” value [1] was 0 n (%) and the “Vomiting, all grades” value [1] was 0 n (%). The “AST increased, Grades 3–5” value [2] was 0 n (%), the “AST increased, all grades” value [2] was 0 n (%) and the “Abdominal pain, Grades 3–5” value [2] was 0 n (%). The “Abdominal pain, all grades” value [2] was 2 (33) n (%), the “Anemia, Grades 3–5” value [2] was 0 n (%) and the “Anemia, all grades” value [2] was 0 n (%). For the same compound, the “Arthralgia, Grades 3–5” value [2] was 0 n (%), the “Arthralgia, all grades” value [2] was 1 (17) n (%) and the “Constipation, Grades 3–5” value [2] was 0 n (%). For the same compound, the “Constipation, all grades” value [2] was 3 (50) n (%), the “Cough, Grades 3–5” value [2] was 0 n (%) and the “Cough, all grades” value [2] was 1 (17) n (%). For the same compound, the “Decreased appetite, Grades 3–5” value [2] was 0 n (%), the “Decreased appetite, all grades” value [2] was 4 (67) n (%) and the “Diarrhea, Grades 3–5” value [2] was 1 (17) n (%). For the same compound, the “Diarrhea, all grades” value [2] was 6 (100) n (%), the “Dyspepsia, Grades 3–5” value [2] was 0 n (%) and the “Dyspepsia, all grades” value [2] was 3 (50) n (%). For the same compound, the “Fatigue, Grades 3–5” value [2] was 0 n (%), the “Fatigue, all grades” value [2] was 3 (50) n (%) and the “Flatulence, Grades 3–5” value [2] was 0 n (%). For the same compound, the “Flatulence, all grades” value [2] was 1 (17) n (%), the “Nausea, Grades 3–5” value [2] was 0 n (%) and the “Nausea, all grades” value [2] was 4 (67) n (%). The “Vomiting, Grades 3–5” value [2] was 0 n (%), the “Vomiting, all grades” value [2] was 3 (50) n (%) and the “SAE Urinary tract infection” value (phase Ib and IIa (n=111), grade 1, cohort A1) was 1 n. For the same compound, the “SAE Hepatic hemorrhage” value (phase Ib and IIa (n=111), grade 2, cohort A1) was 1 n, the “SAE Deep vein thrombosis” value [3] was 1 n and the “SAE Pneumonia” value [3] was 1 n. For the same compound, the “SAE Pleural effusion” value (phase Ib and IIa (n=111), grade 2, cohort C1) was 1 n, the “SAE Abdominal pain” value [4] was 1 n and the “SAE Appendicitis perforated” value [4] was 1 n. The “SAE Pain in extremity” value [4] was 1 n, the “SAE Ascites” value [5] was 1 n and the “SAE Hypertension” value [5] was 1 n. The “SAE Vomiting” value (phase Ib and IIa (n=111), grade 3, cohort A1 (both)) was 2 n, the “SAE Cardiac failure” value [6] was 1 n and the “SAE Diarrhea” value [6] was 1 n. The “SAE Dyspnea” value [6] was 1 n, the “SAE Endometrial hyperplasia” value [6] was 1 n and the “SAE Headache” value [6] was 1 n. The “SAE Hip fracture” value [6] was 1 n, the “SAE Hydronephrosis” value [6] was 1 n and the “SAE Seizure” value [6] was 1 n. The “SAE Syncope” value [6] was 1 n, the “SAE Tumor pain” value [6] was 1 n and the “SAE Atrial fibrillation” value (phase Ib and IIa (n=111), grade 3, cohort C1) was 1 n. The “SAE Pneumonia” value (phase Ib and IIa (n=111), grade 3, cohorts A2, B1) was 2 n, the “SAE Pulmonary embolism” value (phase Ib and IIa (n=111), grade 3, cohorts B1, D1) was 2 n and the “SAE Hyponatremia” value (phase Ib and IIa (n=111), grade 4, cohort B1) was 1 n. The “SAE Sepsis” value (phase Ib and IIa (n=111), grade 4, cohorts B1, B2) was 2 n, the “SAE Acute kidney injury” value [7] was 1 n and the “SAE Breast cancer” value [7] was 2 n. For the same compound, the “AEs leading to dose interruption” value [8] was 5 (50%) n (%), the “AEs leading to dose reduction” value [8] was “none” and the “AEs leading to study drug withdrawal” value [8] was “none”. The “vomiting, most common AEs” value (phases Ib/IIa) was 31,28% and the “RP2D (recommended phase 2 dose)” value (taken with food / non-fasted) was 600 mg QD.
